Results as given in patent US10786690B2, “Amide derivatives of polycaffeoylquinic acids, process for producing same and uses thereof” (TEMISIS, priority 2016, dated 2020).

Tests used:
[1] = system: IL-6; test: IL-6 production by NHEKs in the inflammatory state (PMA + calcium ionophore, 0.8 mM Ca2+), ELISA; format: cell-based, human; settings: PMA + calcium ionophore A23187, 0.8 mM Ca2+, compounds 50 μM, dexamethasone 10 μM, relative to induced control
Description: The study was carried out on Normal Human Epidermal Keratinocytes (NHEKs) (Lonza, CC-2507, origin: foreskin) in monolayer culture in Epilife medium (Invitrogen, M-EPI-500-A) containing the components of the Human Keratinocyte Growth Supplement (HKGS) mixture (Invitrogen, S-001-K) added separately, except hydrocortisone having anti-inflammatory properties.
For the quantification of IL-8 and PGE2, the inflammatory state of the NHEKs in culture was induced by treatment with PMA (phorbol myristate acetate/10 ng/ml/H2O) for 24 h. […]
Quantification of the various inflammatory mediators was carried out with specific kits, based on a standard curve, according to the instructions provided by the kits' suppliers, R&D Systems and Cayman Chemical.
Before induction of the inflammatory state, the NHEKs were treated with the compounds and reference molecules for 2 h. The inflammatory state was then induced according to the conditions described in the methodology section, the culture supernatants were collected, and the various inflammatory mediators were quantified by the ELISA technique.
The effect of the compounds on IL-6 production by NHEKs in the inflammatory state is shown in FIG. 6 and is expressed as a percentage of the treatment with PMA combined with calcium ionophore A23187 (under high-calcium conditions: 0.8 mM Ca2+).

[2] = system: female SKH-1 hairless mice; test: TPA-induced skin inflammation in female SKH-1 hairless mice, macroscopic visual scoring; format: in vivo
Description: The study is performed on 18 female SKH-1 hairless mice, weighing roughly 20-25 g and divided into 3 groups (n=6/housed in pairs) under controlled temperature (24±2° C.) and humidity (50±20%) conditions and with a 12-hour reversed light cycle (light from 21:00 to 09:00) (food and water ad libitum).
The compounds to be tested are as follows: • Excipial® ointment (control) • PAT1657 (octyl-isochlorogenamide A) incorporated at 1.33% or 2.67% by mass in Excipial® ointment
The treatment groups are distributed as follows: • G1: induced skin inflammation+daily treatment with vehicle (Excipial® ointment) (Control), • G2: induced skin inflammation+treatment with PAT1657 incorporated at 1.33% by mass in Excipial® ointment (PAT1657/1.33%), • G3: induced skin inflammation+treatment with PAT1657 incorporated at 2.67% by mass in Excipial® ointment (PAT1657/2.67%). Induction and Maintenance of Skin Inflammation
Skin inflammation is induced for each mouse by daily dorsal cutaneous application to Zone A (FIG. 9) for 7 days (day 1 to day 7) of 100 μL of TPA acetone solution at a concentration of 0.2 mg/ml.
It is then maintained by cutaneous application every 2 days for 7 days (day 8 to day 14) of 100 μl of TPA acetone solution.
For the vehicle, the animals (G1) were treated daily by cutaneous application of 0.125 g of ointment on the backs of the mice just off the zone of application of TPA acetone solution (roughly 5 cm^2 area corresponding to zones A and B shown in FIG. 9), for 7 days from day 8 to day 14.
For compound PAT1657, the animals (G2 and G3) were treated by cutaneous application of 0.125 g of ointment on the backs of the mice just off the zone of application of TPA acetone solution (roughly 5 cm^2 area corresponding to zones A and B shown in FIG. 9), on days 8, 11 and 14.
Macroscopic visual scoring of skin inflammation is performed daily for each mouse from day 8 to day 15 by quantifying it according to the following scale (Guenon-Macé et al., 2015):
Macroscopic visual scoring of skin inflammation makes it possible to quantify the following parameters: • degree of skin inflammation in the TPA acetone solution application zone and in the ointment treatment zone corresponding to zone A in FIG. 9, • degree of skin inflammation in the ointment treatment zone and outside the TPA acetone solution application zone corresponding to zone B in FIG. 9, • degree of skin inflammation on the rest of the back corresponding to zone C in FIG. 9, • Overall macroscopic score of skin inflammation (total of the scores of the three zones A, B and C shown in FIG. 9). Result Animal Mortality

[3] = PAT1657 at 1.33% and 2.67% in Excipial ointment, relative to control, from day 10 onwards

CCCCCCCCNC(=O)[C@]1(O)C[C@@H](OC(=O)/C=C/c2ccc(O)c(O)c2)[C@@H](O)[C@H](OC(=O)/C=C/c2ccc(O)c(O)c2)C1 [PAT1657, (2E,2′E)-((1R,2S,3R,5S)-2,5-dihydroxy-5-(octylcarbamoyl)cyclohexane-1,3-diyl) bis(3-(3,4-dihydroxyphenyl)acrylate)]
IL-6 production [1]: largest decreases and are more effective than dexamethasone itself | degree of skin inflammation, zone A (TPA application zone and treatment zone) ([2]; PAT1657 at 1.33% and 2.67% in Excipial ointment, cutaneous, days 8, 11, 14, relative to control, from day 13 onwards): significant decrease | degree of skin inflammation, zone C (rest of the back) [2, 3]: significant decrease | overall degree of skin inflammation (zones A, B and C) [2, 3]: significant decrease | degree of skin inflammation, zone B (treatment zone outside TPA application zone) ([2]; PAT1657 at 1.33% and 2.67% in Excipial ointment, relative to control, from day 13 onwards): significant decrease | reaction to application of the products ([2]; SKH-1 mice, cutaneous application of ointments): No reaction was observed | intensity of skin inflammation from a macroscopic point of view ([2]; two doses, cutaneous application every 3 days, curative treatment, dose-dependent effect): significantly reduced
